Source: patent US20060205808A1, “Anti-inflammatory and cure for ageing, Alzheimer's disease on phloroglucinol derivatives” (Kaohsiung Medical University, priority 2005, published 2006)

What was measured:
[1] = test system: N9 microglial cells; assay: NO production (nitrite accumulation, Griess reaction) in N9 cells in response to LPS/IFN-γ; type: cell-based; details: LPS (10 ng mL^−1)/IFN-γ (10 U mL^−1); for IC50: read-out: IC50, accumulation of NO2^− in culture media, N9 cells
Protocol: (§1) Treatment of RAW 264.7 macrophage-like cells with LPS (1 μg mL^−1) or N9 microglial cells with LPS (10 ng mL^−1)/IFN-γ (10 U mL^−1) for 24 h induced NO production as assessed by measuring the accumulation of nitrite, a stable metabolite of NO, in the media, based on the Griess reaction. […] 1400 W was used in this experiment as a positive control.

[2] = test system: RAW 264.7 macrophage-like cells; assay: NO production (nitrite accumulation, Griess reaction) in RAW 264.7 cells in response to LPS; type: cell-based; details: LPS (1 μg mL^−1), 24 h; for IC50: read-out: IC50, accumulation of NO2^− in culture media, RAW 264.7 cells
Protocol: as §1

[3] = test system: rat neutrophils; assay: PMA-induced superoxide anion generation in rat neutrophils; type: cell-based; details: PMA (3 nM)
Protocol: (§2) FMLP (0.3 μM)/CB (5 μg mL^−1) or phorbol myristate acetate (PMA) (3 nM) stimulated superoxide anion generation in rat neutrophils. […] Trifluoperazine was used in this experiment as a positive control.

[4] = test system: rat neutrophils; assay: fMLP/CB-induced superoxide anion generation in rat neutrophils; type: cell-based
Protocol: as §2

[5] = test system: rat neutrophils; assay: release of β-glucuronidase from rat neutrophils stimulated with fMLP/CB; type: cell-based; details: fMLP (1 μM)/CB (5 μg mL^−1); for IC50: means ± s.e.m. (n = 3-5)
[6] = test system: rat neutrophils; assay: release of lysozyme from rat neutrophils stimulated with fMLP/CB; type: cell-based; details: fMLP (1 μM)/CB (5 μg mL^−1); for IC50: means ± s.e.m. (n = 3-5)
[7] = test system: mast cells and neutrophils; details: background statement; cited from earlier work

| Compound | IC50 ([1]; 24 h) [µM] | % of inhibition at the highest concentration, NO2^− accumulation, RAW 264.7 cells [2] [%] | IC50 [2] [µM] | IC50 [3] [µM] | % of inhibition at the highest concentration, superoxide anion, PMA [3] [%] | IC50 ([4]; fMLP (0.3 μM)/CB (5 μg mL^−1)) [µM] | IC50 [5] [µM] | IC50 [6] [µM] | inhibition of chemical mediators release from mast cells and neutrophils (in words) [7] | further results |
| --- | --- | --- | --- | --- | --- | --- | --- | --- | --- | --- |
| CC(C)=CCC1CC2(CC=C(C)C)C(=O)C(C(=O)C(C)C)(C(=O)C(C=CC(C)(C)O)=C2O)C1(C)C (centres unmarked) [Compound 1, Garcinielliptone F] | > 3 | 22.9 ± 2.9 | > 10 | > 30 | 46.8 ± 4.5 | 17 ± 0.9 | 26.9 ± 2.6 | 20 ± 1.3 |  | % of inhibition at the highest concentration, NO2^− accumulation, N9 cells ([1]; 24 h, highest concentration): 31.2 ± 0.7%; inhibitory effect on fMLP/CB-induced superoxide anion generation (in words) ([4]; fMLP/CB (5 μg mL^−1)): potent inhibitory effect; inhibitory effect on release of β-glucuronidase (in words) [5]: potent inhibitory effects; inhibitory effect on release of lysozyme (in words) [6]: potent inhibitory effects |
| CC(=N)NCc1cccc(CN)c1 [Compound 1400W, N-(3-Aminomethyl) benzylacetamidine, reference compound] | 2.2 ± 0.1 |  | 3 ± 0.2 |  |  |  |  |  |  |  |
| CC(C)=CCC1=C2O[C@H](C(C)(C)O)C[C@@]23C[C@H](CC=C(C)C)C(C)(C)[C@@](C(=O)C(C)C)(C1=O)C3=O [Garsubellin A] |  |  |  |  |  |  |  |  | strongly inhibited |  |
| CN1CCN(CCCN2c3ccccc3Sc3ccc(C(F)(F)F)cc32)CC1 [Trifluoperazine, reference compound] |  |  |  |  |  |  |  |  |  | IC50 ([3]; Neutrophil): 2.7 ± 0.6 µM; IC50 ([4]; Neutrophil, fMLP (0.3 μM)/CB (5 μg mL^−1)): 6.6 ± 0.2 µM; IC50 ([5]; Neutrophil): 10.6 ± 0.9 µM; IC50 ([6]; Neutrophil): 13.2 ± 0.7 µM |
| CC(C)=CC[C@H]1C[C@]2(CC=C(C)C)C(=O)[C@]3(CC=C(C)C)O[C@@]1(C(=O)C(C)C)[C@@]2(O)C(C)(C)C3=O [garcinielliptin oxide] |  |  |  |  |  |  |  |  | strongly inhibited |  |
| Garcinielliptone I [Compound 4] | 7.4 ± 0.2 | 17.4 ± 1.5 | > 30 | > 30 | −76.3 ± 7.3 | > 30 | > 30 | > 30 |  | effect on production of NO induced by LPS/IFN-γ in N9 cells (in words) [1]: potent inhibitory effect; % of inhibition at the highest concentration, superoxide anion, fMLP/CB ([4]; fMLP (0.3 μM)/CB (5 μg mL^−1), highest concentration): 2.8 ± 5.7%; % of inhibition at the highest concentration, β-Glucuronidase release ([5]; highest concentration): 15.6 ± 2.7%; % of inhibition at the highest concentration, Lysozyme release ([6]; highest concentration): −1.6 ± 7.3% |
